The assay can be described thus: Inhibition of quorum sensing system in Pseudomonas aeruginosa PAO1-lasB-gfp at 10 uM relative to control.
On to `CCCCC1(O)C2=C(C=CCC2)C(=O)N1CCCCc1ccccc1` (configuration not stated), for which the inhibition amounted to 18.1%. The result for `CCCCC1(O)C2=C(C=CCC2)C(=O)N1Cc1ccc(C(C)C)cc1` (configuration not stated) reads 40.7%; that for `CCCCC1(O)C2=C(C=CCC2)C(=O)N1C1CC1` (configuration not stated), 20.4%. `CCCCCN1C(=O)C2=C(CCC=C2)C1(O)CCCC` (configuration not stated) gave an inhibition of 21.2%. The same measure for `CCCCC1(O)C2=C(C=CCC2)C(=O)N1CCC` (configuration not stated): 21.1%. The result for `CCCCC1(O)C2=C(C=CCC2)C(=O)N1Cc1cccc(C(F)(F)F)c1` (configuration not stated) reads 39.4%; that for `CCCCC1(O)C2=C(C=CCC2)C(=O)N1Cc1ccco1` (configuration not stated), 33.9%; that for `CCCCC1(O)C2=C(C=CCC2)C(=O)N1Cc1ccccc1F` (configuration not stated), 40.4%. In turn, `CCCCC1(O)C2=C(C=CCC2)C(=O)N1Cc1ccc(-c2ccccc2)cc1` (configuration not stated) had an inhibition of 43.8%. The same measure for `CCCCC1(O)C2=C(C=CCC2)C(=O)N1Cc1cccs1` (configuration not stated): 29.7%.

Turning to `CCCCC1(O)C2=C(C=CCC2)C(=O)N1Cc1ccccc1OC` (configuration not stated), the inhibition amounted to 36.3%.

As for `CCCCC1(O)C2=C(C=CCC2)C(=O)N1Cc1ccc(F)cc1` (configuration not stated), the inhibition was 41.5%. Take `CCCCC1(O)C2=C(C=CCC2)C(=O)N1Cc1ccc(C#N)cc1` (configuration not stated): the inhibition was 44.3%. The same measure for `CCCCC1(O)C2=C(C=CCC2)C(=O)N1Cc1cccc(F)c1` (configuration not stated): 41%. The same measure for `CCCCC1(O)C2=C(C=CCC2)C(=O)N1Cc1ccccc1Cl` (configuration not stated): 37.6%; for `CCCCC1(O)C2=C(C=CCC2)C(=O)N1Cc1cccnc1` (configuration not stated): 31.9%. The result for `CCCCC1(O)C2=C(C=CCC2)C(=O)N1CCc1ccccc1` (configuration not stated) reads 11.6%; that for `CCCCC1(O)C2=C(C=CCC2)C(=O)N1Cc1ccccc1C(F)(F)F` (configuration not stated), 45.1%; that for `CCCCC1(O)C2=C(C=CCC2)C(=O)N1CCc1c[nH]c2ccc(OC)cc12` (configuration not stated), 30.6%. As to `CCCCC1(O)C2=C(C=CCC2)C(=O)N1c1ncccn1` (configuration not stated), the inhibition was 35.5%. The result for `CCCCC1(O)C2=C(C=CCC2)C(=O)N1Cc1ccc(OC)cc1` (configuration not stated) reads 40.7%. The same measure for `CCCCC1(O)C2=C(C=CCC2)C(=O)N1CC` (configuration not stated): 17.4%; for `CCCCC1(O)C2=C(C=CCC2)C(=O)N1C1CCCCC1` (configuration not stated): 16.4%. On to `CCCCC1(O)C2=C(C=CCC2)C(=O)N1Cc1cccc(-c2ccccc2)c1` (configuration not stated), for which the inhibition was found to be 32.9%. In turn, `CCCCN1C(=O)C2=C(CCC=C2)C1(O)CCCC` (configuration not stated) displayed an inhibition of 21.6%. For `CCCCC1(O)C2=C(C=CCC2)C(=O)N1Cc1ccc(Cl)cc1` (configuration not stated), the inhibition is 47.4%.

In turn, `CCCCC1(O)C2=C(C=CCC2)C(=O)N1CCc1c[nH]c2ccc(O)cc12` (configuration not stated) yielded an inhibition of 37.7%.

`CCCCC1(O)C2=C(C=CCC2)C(=O)N1Cc1ccc(Br)cc1` (configuration not stated) gave an inhibition of 45.2%.

Molecule `CCCCC1(O)C2=C(C=CCC2)C(=O)N1Cc1cccc(Cl)c1` (configuration not stated) registered an inhibition of 34.2%. The result for `CCCCC1(O)C2=C(C=CCC2)C(=O)N1Cc1ccc(N(C)C)cc1` (configuration not stated) reads 35.3%; that for `CCCCC1(O)C2=C(C=CCC2)C(=O)N1Cc1ccc(OCC)cc1` (configuration not stated), 40.5%. The same measure for `CCCCC1(O)C2=C(C=CCC2)C(=O)N1Cc1cccc(OC)c1` (configuration not stated): 29.4%; for `CCCCC1(O)C2=C(C=CCC2)C(=O)N1C1CCCC1` (configuration not stated): 16.7%; for `C#CCN1C(=O)C2=C(CCC=C2)C1(O)CCCC` (configuration not stated): 21.5%. The result for `CCCCC1(O)C2=C(C=CCC2)C(=O)N1Cc1ccc(C)cc1` (configuration not stated) reads 41.5%; that for `CCCCC1(O)C2=C(C=CCC2)C(=O)N1c1ccccc1` (configuration not stated), 15.1%.

`CCCCC1(O)C2=C(C=CCC2)C(=O)N1Cc1ccc(O)cc1` (configuration not stated) returned an inhibition of 40.2%.
